Measured values published in patent US8956445B2, “High stability diionic liquid salts” (Sigma-Aldrich Co., priority 2004, dated 2015).
Read-outs that look alike come from different tables or passages of the source.

Key:
[1] = Method: Thermal stabilities were measured by immobilizing an approximate 0.15-0.20 microns film of the ionic liquid on the inner wall of a fused silica capillary. The capillary was then heated slowly in an oven and a very sensitive flame ionization detector (or mass spectrometer) used to detect any volatilization or decomposition of the ionic liquid. There are several advantages of using this set-up to measure the thermal stabilities of ionic liquids. The thermal stability is measured in the absence of oxygen by purging the capillary with a continuous flow of an inert gas such as helium, hydrogen, or nitrogen. […] Finally, this approach can use mass spectrometry detection to determine the likely volatilization/decomposition products.
Remark: listed apart in the source
[2] = Surface tension (DuNuoy Tensiometer); assay type: physicochemical; details: room temperature (23° C.)
[3] = Density (2.0 mL volumetric tube, weighing by difference); assay type: physicochemical; details: 23° C.
Method: (§1) The densities of the ionic liquids or, more correctly, […] (used synonymously except as indicated otherwise explicitly or by context) was determined at 23° C. by placing 2.0 mL of the ionic liquid in a 2.0 mL volumetric tube and weighing by difference. The melting points of the ionic liquids were determined using a Perkin Elmer Pyris 1 Differential Scanning calorimeter (Boston, Mass.). Typical methods involved using a 10° C./min temperature ramp to determine and identify the first and second order thermal transitions. […] For solid compounds, the melting points were verified using a capillary melting point apparatus. Refractive index measurements were conducted at 23° C. using a Bausch & Lomb Abbe-3L refractometer.

[4] = Refractive index (Abbe-3L refractometer); assay type: physicochemical; details: 23° C.
Method: as §1

[5] = Solvation interaction parameters by inverse gas-liquid chromatography (Abraham solvation model); assay type: physicochemical
Method: The preparation of the capillary columns for inverse gas-liquid chromatographic analysis was performed using a previously described procedure.^31 All capillary columns had efficiencies between 2100 to 2500 plates/meter. Characterization of the capillary columns and probe molecule descriptions are listed in supplemental information. Multiple linear regression analysis (MLRA) and statistical calculations were performed using the program Analyse-it (Microsoft, USA).
We have previously reported that the Abraham solvation model, a linear free energy approach that utilizes inverse gas-liquid chromatography to describe the solvation properties of a liquid, can be used to characterize room temperature ionic liquids.^31 Described by equation 1, the model provides the so-called “interaction parameters” (r, s, a, b, l) by using multiple linear regression analysis to fit the retention factor (k, determined chromatographically) to the solute descriptors (R2, π2^H, α2^H, β2^H, log L^16) for a wide variety of probe solute molecules. […] The solvation properties of four dicationic ionic liquids (see Table 4) were evaluated and the interaction parameters compared to those obtained for their traditional monocationic analogues 1-butyl-3-methylimidazolium and 1-butyl-1-methylpyrrolidinium ionic liquids.
Previously we characterized a large number of room temperature ionic liquids in terms of multiple solvation interactions using the solvation parameter model, shown in equation 3.^44 log k=c+rR2+sπ2^H+aα2^H+bβ2^H+l log L^16 [3] This approach utilizes inverse gas-liquid chromatography and allows the use of a large number of probe molecules to deconvolute solute retention in terms of the type and magnitude of individual solvation interactions. The solute descriptors (R2, π2^H, α2^H, β2^H, log L^16) from Equation 3 are obtained from the literature for many probe molecules containing a variety of functional groups.^45 The retention factor is determined chromatographically. The solute descriptors and retention factors are subjected to multiple linear regression analysis to obtain the interaction parameter coefficients (r, s, a, b, l), which ultimately characterize the stationary phase: r is the ability of the diionic liquid containing-stationary phase to interact with π and n electrons of the solute, s is a measure of the dipolarity/polarizability of the diionic liquid containing-stationary phase, a defines the diionic liquid containing-stationary phase hydrogen bond basicity, b is a measure of the hydrogen bond acidity, and/refers to the ability of the diionic liquid containing-stationary phase to separate adjacent members of a homologous series.^46
Test solutes used to determine interaction parameters and solvation thermodynamics were dissolved in dichloromethane. A Hewlett-Packard model 5890 gas chromatograph and a Hewlett-Packard 6890 series integrator were used for all separations. Split injection and flame ionization detection were utilized with injection and detection temperatures of 250° C. Helium was used as the carrier gas with a column inlet pressure of 3.1 psi and flow rate of 1.0 mL/min. Methane was used to determine the dead volume of the column. Multiple linear regression analysis and statistical calculations were performed using the program Analyze-it (Microsoft).

[6] = exposed to the atmosphere and heated; cited from earlier work
[7] = values taken from reference 31, cited from earlier work
[8] = 0.15-0.20 micron film in fused silica capillary, helium flow, FID, tested only up to 400° C.

SMILES	thermal stability (volatilization/decomposition temperature) [1]	Miscibility with Heptane	Miscibility with Water	Surface Tension [2] [dynes/cm]	Density [3] [g/mL]	Refractive Index [4]	a (hydrogen bond basicity) ([5]; 40° C.)	b (hydrogen bond acidity) ([5]; 40° C.)	c (interaction parameter table, constant) ([5]; 40° C.)	l (dispersion forces) ([5]; 40° C.)	r (interaction via nonbonding and π-electrons) ([5]; 40° C.)	s (dipolarity/polarizability) ([5]; 40° C.)	a (hydrogen bond basicity) ([5]; 70° C.)	b (hydrogen bond acidity) ([5]; 70° C.)	c (interaction parameter table, constant) ([5]; 70° C.)	l (dispersion forces) ([5]; 70° C.)	r (interaction via nonbonding and π-electrons) ([5]; 70° C.)	s (dipolarity/polarizability) ([5]; 70° C.)	a (hydrogen bond basicity) ([5]; 100° C.)	b (hydrogen bond acidity) ([5]; 100° C.)	further results
CCCC[N+]1(CCCCCCCCC[N+]2(CCCC)CCCC2)CCCC1.O=S(=O)([N-]S(=O)(=O)C(F)(F)F)C(F)(F)F.O=S(=O)([N-]S(=O)(=O)C(F)(F)F)C(F)(F)F [C9(bpy)2-NTf2, 1,9-di(butylpyrrolidinium)nonane di-bis[(trifluoromethyl)sulfonyl]imida]	330 °C	Immiscible	Immiscible	–	–	–	–	–	–	–	–	–	–	–	–	–	–	–	–	–	–
O=S(=O)([N-]S(=O)(=O)C(F)(F)F)C(F)(F)F.O=S(=O)([N-]S(=O)(=O)C(F)(F)F)C(F)(F)F.c1ccc(Cn2cc[n+](CCCCCCCCCCCC[n+]3ccn(Cc4ccccc4)c3)c2)cc1 [C12(benzim)2-NTf2, 1,12-di(3-benzylimidazolium)dodecane di-bis[(trifluoromethyl)sulfonyl]imidate]	350-360 °C	Immiscible	Immiscible	41.5	1.37	1.482	1.96	0.84	−2.94	0.66	0.11	1.65	1.75	0.57	−3.07	0.56	0.07	1.62	1.44	0.52	c (interaction parameter table, constant) ([5]; 100° C.): −3.12; l (dispersion forces) ([5]; 100° C.): 0.46; r (interaction via nonbonding and π-electrons) ([5]; 100° C.): 0; s (dipolarity/polarizability) ([5]; 100° C.): 1.47
Cn1cc[n+](CCCCCCCCC[n+]2ccn(C)c2)c1.O=S(=O)([N-]S(=O)(=O)C(F)(F)F)C(F)(F)F.O=S(=O)([N-]S(=O)(=O)C(F)(F)F)C(F)(F)F [C9(mim)2-NTf2, 1,9-di(3-methylimidazolium)nonane di-bis[(trifluoromethyl)sulfonyl]imidate]	350-360 °C	Immiscible	Immiscible	43.1	1.47	1.442	1.83	0.47	−2.86	0.62	0.16	1.81	1.75	0.20	−2.95	0.51	0.11	1.76	1.50	0.15	c (interaction parameter table, constant) ([5]; 100° C.): −3.06; l (dispersion forces) ([5]; 100° C.): 0.43; r (interaction via nonbonding and π-electrons) ([5]; 100° C.): 0.11; s (dipolarity/polarizability) ([5]; 100° C.): 1.64
C[N+]1(CCCCCCCCC[N+]2(C)CCCC2)CCCC1.O=S(=O)([N-]S(=O)(=O)C(F)(F)F)C(F)(F)F.O=S(=O)([N-]S(=O)(=O)C(F)(F)F)C(F)(F)F [C9(mpy)2-NTf2, 1,9-di(methylpyrrolidinium)nonane di-bis[(trifluoromethyl)sulfonyl]imidate]	> 400 °C	Immiscible	Immiscible	42.2	1.41	1.436	1.98	0.32	−2.83	0.62	0.27	1.71	1.65	0.35	−2.85	0.48	0.34	1.52	1.48	0.15	c (interaction parameter table, constant) ([5]; 100° C.): −2.99; l (dispersion forces) ([5]; 100° C.): 0.42; r (interaction via nonbonding and π-electrons) ([5]; 100° C.): 0.23; s (dipolarity/polarizability) ([5]; 100° C.): 1.49
CCCCn1cc[n+](C)c1.[Cl-] [BMIM-Cl, 1-butyl-3-methylimidazolium chloride, reference compound]	–	–	–	–	–	–	–	–	–	–	–	–	–	–	–	–	–	–	–	–	thermal stability (volatilization/decomposition temperature) [1, 8]: 145 °C; temperature of obvious signs of decomposition [6]: ≥ 150 °C
CCCCn1cc[n+](C)c1.O=S(=O)([N-]S(=O)(=O)C(F)(F)F)C(F)(F)F [BMIM—NTf2, 1-butyl-3-methylimidazolium bis[(trifluoromethylsulfonyl)imide]]	–	–	–	–	–	–	–	–	–	–	–	–	–	–	–	–	–	–	–	–	thermal stability (volatilization/decomposition temperature) [1, 8]: 185 °C; a (hydrogen bond basicity) ([7]; 40° C.): 2.02; b (hydrogen bond acidity) ([7]; 40° C.): 0.36; c (interaction parameter table, constant) ([7]; 40° C.): −2.87; l (dispersion forces) ([7]; 40° C.): 0.63; r (interaction via nonbonding and π-electrons) ([7]; 40° C.): 0; s (dipolarity/polarizability) ([7]; 40° C.): 1.89; a (hydrogen bond basicity) ([7]; 70° C.): 1.75; b (hydrogen bond acidity) ([7]; 70° C.): 0.38; c (interaction parameter table, constant) ([7]; 70° C.): −3.03; l (dispersion forces) ([7]; 70° C.): 0.56; r (interaction via nonbonding and π-electrons) ([7]; 70° C.): 0; s (dipolarity/polarizability) ([7]; 70° C.): 1.67; a (hydrogen bond basicity) ([7]; 100° C.): 1.55; b (hydrogen bond acidity) ([7]; 100° C.): 0.24; c (interaction parameter table, constant) ([7]; 100° C.): −3.13; l (dispersion forces) ([7]; 100° C.): 0.49; r (interaction via nonbonding and π-electrons) ([7]; 100° C.): 0; s (dipolarity/polarizability) ([7]; 100° C.): 1.60
